Experimental data as given in patent publication EP1547597A2, “Use of adatanserin for the treatment of neurodegenerative conditions” (Wyeth, priority 1999, dated 2001).

System: rat hippocampal slices
Assay: Reduction of azide-induced ischemic efflux of glutamate in rat hippocampal slices
Assay type: cell-based
Details: versus control, statistically significant, read-out: reduction of glutamate release (azide-induced ischemic efflux of glutamate)
Protocol: Adatanserin was evaluated for its ability to reduce the azide-induced ischemic efflux of glutamate in rat hippocampal slices. Three Krebs buffers were used in the experiments. Normal Krebs buffer consisted of a solution containing the following: (122 mM NaCl, 3 mM KCl, 24 mM NaHCO3, 10 mM glucose, 0.315 mM K2HPO4, 1.2 mM MgSO4, 4 mM CaCl2). Aglycemic Krebs buffer was similar to the normal buffer with the exception that glucose was not added. Ischemic Krebs buffer was the aglycemic solution which contained varying concentrations of sodium azide (0 - 30 mM).
Rat hippocampi were dissected on a cold platform and suspended in ice cold oxygenated normal Krebs buffer. The tissue was cross-chopped at 350 microns on a Mcllwain tissue chopper, then resuspended and washed three times with ice cold normal Krebs buffer. […] Amino acid concentrations were analyzed with reverse phase HPLC on a catacholamine column (Keystone Scinetific, 150 x 3 mm) employing an 0.05 M acetate/methanol gradient. […] Amino acids were visualized by derivatization with naphthalene-2,3-dicarboxaldehyde and fluorimetric detection (Dawson, L. A. et al., Improved Temporal Resolution of Microdialysis Measurement of Glutamate and Aspartate Using Capillary Electrophoresis with Laser Induced Fluorescence Detection. J. Chromatogr. B 1997, 694, 1204-1212). […]

Compound: O=C(NCCN1CCN(c2ncccn2)CC1)C12CC3CC(CC(C3)C1)C2 [adatanserin, N-[2-[4-(2-pyrimidinyl)-1-piperazinyl]ethyl]tricyclo[3.3.1.13,7]decane-1-carboxamide]
- inhibition at 0.1 µM (adatanserin 100 nM): 72%
- inhibition at 1 µM (adatanserin 1000 nM (1 µM)): 71%
